# In US20120232062A1, “AZAINDAZOLES TO TREAT FLAVIVIRIDAE VIRUS INFECTION” (EIGER BIOPHARMACEUTICALS, INC., priority 2009, published 2012):
# How the values were obtained:
# HCV genotype 1b = test: HCV 1b replicon luciferase assay; assay type: cell-based; conditions: Hepatitis C virus, Huh-7, 48 h, Table 1; Huh7 HCV 1b replicon, luciferase reporter, 48 hours; read-out: 1b EC50
# Outline: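 Huh7 cells carrying a genotype 1b replicon with stable luciferase reporter, 10k cells/well, were treated 48 h at 37 °C with 10-point 5-fold dilutions from 25 μM (0.1% DMSO), in duplicate. Replication was read as Steady-Glo luminescence.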
# [1] = Liver microsome stability, human; assay type: in vitro ADME
# Excerpt: (§1) Metabolic stability assays are designed to measure the stability of a test compound in a variety of assay matrices from human and animal species. From a metabolism perspective, a drug would be relatively stable, have a small first-pass effect, and maintain an effective concentration in blood for a reasonable period of time. A microsomal preparation from the liver contains all CYP isozymes and other membrane-bound drug metabolizing enzymes which are responsible for the metabolism for the majority of drugs in humans. Metabolic stability in liver microsomes can determine half-life (T1/2) and intrinsic clearance (Clint). The determination of Clint may be useful to determine whether metabolism is the major elimination pathway when it is compared to total body clearance in vivo. For high metabolic stability in liver microsomes: […] Human, Sprague Dawley rat, and CD-1 mouse liver microsome samples were purchased from BD Gentest. An in vitro metabolic stability assay suitable for use in predicting first pass metabolism of the compounds useful in the methods of the invention is described in this example. […] 6 mM NADPH in 0.1 M K-phosphate buffer is prepared by dissolving 25.1 mg of NADPH tetrasodium salt in 5 mL of K-phosphate buffer. […] The plate is pre-incubated at 37° C. for 10 minutes. 15 μL of NADPH stock solution (6 mM) is added to the wells designated for Time 60 and timed. At 30 min, 15 min, and 5 min, 15 μL of NADPH stock solution (6 mM) is added to the wells. At the end of incubation, 135 μL of ACN containing IS is added to all the wells (60 min, 30 min, 15 min, 5 min and 0 min). Then 15 μL of NADPH stock solution (6 mM) is added to the wells designated as Time 0.
# [2] = Liver microsome stability, rat; assay type: in vitro ADME, Sprague Dawley rat
# Excerpt: as §1
# [3] = Liver microsome stability, mouse; assay type: in vitro ADME, CD-1 mouse
# Excerpt: as §1
# [4] = Caco-2 permeability testing; assay type: in vitro ADME, human; conditions: human, 90 min; for Papp A→B at 90 min, 10 µM: Caco-2, pH 7.4, Caco-2, A-B, read-out: Permeability (second figure of Efflux/permeability), Papp (A-B); for Papp B→A at 90 min, 10 µM: Caco-2, pH 7.4, Caco-2, B-A, read-out: Efflux (first figure of Efflux/permeability), Papp (B-A)
# Excerpt: Intestinal epithelium permeability is a critical characteristic that determines the rate and extent of human absorption and affects bioavailability of a drug candidate. Poor intestinal permeability leads to limited absorption. Generally, higher absorption is preferred. The Caco-2 cell line is a human colon adeno-carcinoma cell line that resembles the epithelial lining of the human small intestine. Several transport proteins that are expressed in human intestinal epithelium are also expressed in the Caco-2 cell model. Some transporter proteins are efflux systems which mediate the secretion of compounds from inside the cell back to the apical lumen (representative of the intestinal lumen), limiting overall absorption. In a permeability assay, the apparent permeability coefficient is measured between the apical to basolateral sides of a cell monolayer, Papp (A-B), and the basolateral to the apical side, Papp (B-A). Papp (A-B)<2×10^−6 cm/s is predictive of low permeability to the basolateral side, 2×10^−6 cm/s<Papp (A-B)<20×10^−6 cm/s is predictive of medium permeability, and Papp (A-B)>20×10^−6 cm/s is predictive of high permeability. In the B-A permeability assay, Papp (B-A) is measured and compounds evaluated for efflux potential. Together, these assay results are reported as a ratio of Papp (B-A) to Papp (A-B). Papp (B-A)/Papp (A-B)>3 are likely to be transported by one of the efflux systems, and have poor absorption. Papp (B-A)/Papp (A-B)<3 are likely to show reasonable intestinal absorption. An in vitro drug absorption assay suitable for use in predicting intestinal absorption of the compounds useful in the methods of the invention is described in this example. The embodiments of this assay described in this example were developed by Shanghai ChemPartner Co., Ltd., a corporation of China with its principal office located at 720 Cailun Road, Building No. 3, Shanghai 201203, China.
# Caco-2 (ATCC, catalog No. HTB-37™) cells are cultured in growth medium (MEM+10% FBS+1% NEAA). The growth medium is prepared by adding 50 mL FBS and 5 mL NEAA to 445 mL of MEM or by adjusting the final volume according to actual needs. Trypsin-EDTA (Invitrogen, Cat #25200-072) is also used.
# Hanks Balanced Salt Solution (HBSS, Invitrogen, Cat #14025-092) with 25 mM HEPES, pH 7.4, HBSS buffer with 0.2% DMSO (50 μL DMSO into 25 ml HBSS buffer), and HBSS buffer with 0.4% DMSO (100 μL DMSO into 25 ml HBSS buffer) are used.
# 10 mM stock solutions of a compound is prepared in DMSO and Lucifer Yellow in assay buffer using the formula (Actual Weight/Molecular Weight)/mL solvent=10 mM. Erythromycin, Metoprolol, and Atenolol are used as reference compounds. Donor solutions (10 μM for compounds and 5 μM for Lucifer Yellow) are prepared. For A-B, 4 μL of 10 mM compound stock solution and 2 μL of 10 mM Lucifer Yellow stock solution are loaded into 4 mL of HBSS buffer, and centrifuged (5 min, 4000 rpm) to precipitate undissolved particles. Supernatants are collected for compound dosing. For B-A, 4 μL (compounds) of 10 mM compound stock solution is added to 4 mL HBSS buffer with 0.2% DMSO, and centrifuged (5 min, 4000 rpm) to precipitate undissolved particles. Supernatants are collected for compound dosing.
# Receiver solutions are prepared. For A-B, the solution is HBSS buffer with 0.4% DMSO. For B-A, 2 μL of 10 mM Lucifer Yellow stock solution is added to 4 mL of HBSS buffer with 0.2% DMSO. Compound solutions are prepared for standard curve (3 μM/1 μM/0.2 μM/0.04 μM/0.01 μM/0.005 μM):
# 1× solution: 3 μL of 20× solution (0.1-60 μM)+57 μL 0.4% DMSO HBSS+60 μL acetonitrile (ACN) with internal standard (IS, 200 ng/mL Osalmid). The assay was performed as described below
# Stock cultures are maintained in MEM+10% FBS+1% NEAA, grown in 75 cm^2 tissue culture treated flasks and split (passed) 2 times weekly to maintain desired confluence. For maintenance passage, trypsinized cells are routinely distributed into new flasks at a standard passage ratio of 1:4. […]
Compound,EC50 (HCV genotype 1b) [nM],"human liver microsome (HLM, % parent remaining) ([1]; after 15 min) [% parent remaining]","human liver microsome (HLM, % parent remaining) ([1]; after 30 min) [% parent remaining]","human liver microsome (HLM, % parent remaining) ([1]; after 60 min) [% parent remaining]","rat liver microsome (RLM), % parent remaining ([2]; after 15 min) [% parent remaining]","rat liver microsome (RLM), % parent remaining ([2]; after 30 min) [% parent remaining]","rat liver microsome (RLM), % parent remaining ([2]; after 60 min) [% parent remaining]","mouse liver microsome (MLM), % parent remaining ([3]; after 15 min) [% parent remaining]","mouse liver microsome (MLM), % parent remaining ([3]; after 30 min) [% parent remaining]","mouse liver microsome (MLM), % parent remaining ([3]; after 60 min) [% parent remaining]","Papp A→B at 90 min, 10 µM [4] [×10⁻⁶ cm/s]","Papp B→A at 90 min, 10 µM [4] [×10⁻⁶ cm/s]"
CC1CCCN1CCCc1nn(C)c2nc(N3CCCCCCC3)ccc12 (stereo not shown) [compound 1452],1200,32,13,3,2,0.8,0.5,1.7,0.9,0.3,,
Cn1nc(C(=O)NC2CCN(CCN3CCOCC3)CC2)c2ccc(NC3CCCCCCC3)nc21 [compound 1471],870,,,,,,,,,,10.9,9.6
CCCN1CCC(NC(=O)c2nn(C)c3nc(NC4CCCCCCC4)ccc23)CC1 [compound 1475],830,,,,,,,,,,5.9,6.3
O=C(NC1CCN(CCN2CCCCC2)CC1)c1nn(CC(F)F)c2nc(N3CCCCCC3)ccc12 [compound 1488],640,,,,,,,,,,3.3,3.5
CC1CCC(C)N1CCOCc1nn(C)c2nc(N3CCCCCC3)ccc12 (stereo not shown) [compound 1540],2700,17,9,4,17,2,4,34,18,10,,
CC1CCCCN1CCOCc1nn(C)c2nc(N3CCCCCC3)ccc12 (stereo not shown) [compound 1549],4000,16,11,13,52,31,17,27,17,13,,
Cn1nc(C(=O)NC2CCN(CCN3CCCCC3CO)CC2)c2ccc(N3CCCCCC3)nc21 (stereo not shown) [compound 1559],1800,65,32,7,57,31,8,54,27,5,,
Cn1nc(C(=O)NC2CCN(CCN3CCC(CO)CC3)CC2)c2ccc(N3CCCCCC3)nc21 [compound 1560],860,,,,,,,,,,2,13.1
CC1CCC(C)N1CCN1CCC(NC(=O)c2nn(C)c3nc(N4CCCCCC4)ccc23)CC1 (stereo not shown) [compound 1562],1900,,,,,,,,,,6.7,6.3
